Data reported in US20060052415A1, “N-{2-chloro-4-[(6,7-dimethoxy-4-quinolyl)oxy]phenyl}-n'-(5-methyl-3-isoxazolyl)urea salt in crystalline form” (KIRIN BEER KABUSHIKI KAISHA, priority 2002, published 2006).
“Also recorded” adds a separate entry of the source.

What was measured:
Format in all cases: physicochemical
[1] = Stability of crystal under heating (73° C.) conditions; conditions: stored at 73° C. for 2 weeks
Protocol: (§1) X-ray diffraction patterns of crystals were taken using Cu-Kα radiation (40 kV, 40 mA, λ=1.541 angstroms) with a powder X-ray diffraction apparatus (X-ray diffraction RINT DMAX-2000, manufactured by Rigaku Industrial Corporation) (scanning speed: 5 degrees/min, scanning range: 5.000 to 40.000 degrees, filter: Kβ filter). Based on powder X-ray diffraction patterns thus obtained, peak positions and relative intensity (%) were determined for peaks with a relative intensity of not less than 20%.
Stability of Crystal Under Heating (73° C.) Conditions
(§2) Form I to III crystals of hydrochloride, form I crystal of nitrate, form I and II crystals of sulfate, form I crystal of methanesulfonate, form I and II crystals of p-toluenesulfonate, and form I and II crystals of maleate of N-{2-chloro-4-[(6,7-dimethoxy-4-quinolyl)oxy]phenyl}-N′-(5-methyl-3-isoxazolyl)urea were stored at 73° C. for 2 weeks. […]

[2] = Stability of crystal under high humidity (40° C., 75% RH) conditions; conditions: stored at 40° C. and 75% RH for 2 weeks
Protocol: as §1
Stability of Crystal Under High Humidity (40° C., 75% RH) Conditions
as §2, with “under conditions of 40°” for “at 73°”, “C. and 75% RH” for “C.”

[3] = Stability of crystal against physical stress (grinding in a mortar); conditions: ground in an agate or porcelain mortar
Protocol: as §1
Stability of Crystal Against Physical Stress
Each of form I to III crystals of hydrochloride, form I crystal of nitrate, form I and II crystals of sulfate, form I crystal of methanesulfonate, form I and II crystals of p-toluenesulfonate, and form I and II crystals of maleate of N-{2-chloro-4-[(6,7-dimethoxy-4-quinolyl)oxy]phenyl}-N′-(5-methyl-3-isoxazolyl)urea was ground in a mortar. In grinding each crystal in the mortar, about 1 mg of each crystal sample was placed and ground in an agate mortar or a porcelain mortar. For each sample before and after grinding, a powder X-ray diffraction chart was measured by method 1 to evaluate the stability of the crystal against physical stress.

[4] = Hygroscopicity of crystal (weight change on storage); conditions: 40° C. and 75% RH; for hygroscopicity (level, in words): 2 weeks, based on weight change
Protocol: Hygroscopicity of Crystal
Form I to III crystals of hydrochloride, form I crystal of nitrate, form I and II crystals of sulfate, form I crystal of methanesulfonate, form I and II crystals of p-toluenesulfonate, and form I and II crystals of maleate of N-{2-chloro-4-[(6,7-dimethoxy-4-quinolyl)oxy]phenyl}-N′-(5-methyl-3-isoxazolyl)urea were stored under conditions of 40° C. and 75% RH for 2 weeks. Before and after the storage, the weight of each crystal was measured to determine a difference in weight between before the storage and after the storage.
For each crystal, the hygroscopicity was evaluated based on the weight change.

[5] = listed as form II crystal of hydrochloride, hydrochloride

Compound	stability of crystal under high temperature conditions (change of powder X-ray diffraction chart) [1]	stability of crystal under high humidity conditions (change of powder X-ray diffraction chart) [2]	stability of crystal against physical stress (powder X-ray diffraction before and after grinding) [3]	hygroscopicity (level, in words) [4]	weight change (hygroscopicity) After 1 week [4]	weight change (hygroscopicity) After 2 weeks [4]	weight change (hygroscopicity) After 2 days [4]	further results
COc1cc2nccc(Oc3ccc(NC(=O)Nc4cc(C)on4)c(Cl)c3)c2cc1OC.O=C(O)/C=C\C(=O)O [Form I crystal of maleate, N-{2-chloro-4-[(6,7-dimethoxy-4-quinolyl)oxy]phenyl}-N′-(5-methyl-3-isoxazolyl)urea maleate]	excellent stability	excellent stability						stability of crystal against physical stress (powder X-ray diffraction before and after grinding) ([3]; maleate): lowering in peak intensity; hygroscopicity (level, in words) ([4]; maleate): low level of hygroscopicity; also recorded: on a low level; weight change (hygroscopicity) After 1 week ([4]; maleate): 0.41%; weight change (hygroscopicity) After 2 weeks ([4]; maleate): 0.53%; weight change (hygroscopicity) After 2 days ([4]; maleate): 0.46%
COc1cc2nccc(Oc3ccc(NC(=O)Nc4cc(C)on4)c(Cl)c3)c2cc1OC.CS(=O)(=O)O [Form I crystal of methanesulfonate, N-{2-chloro-4-[(6,7-dimethoxy-4-quinolyl)oxy]phenyl}-N′-(5-methyl-3-isoxazolyl)urea methanesulfonate]	excellent stability	excellent stability	excellent stability	highly hygroscopic	2.70%	2.84%	2.58%	
COc1cc2nccc(Oc3ccc(NC(=O)Nc4cc(C)on4)c(Cl)c3)c2cc1OC.O=[N+]([O-])O [Form I crystal of nitrate, N-{2-chloro-4-[(6,7-dimethoxy-4-quinolyl)oxy]phenyl}-N′-(5-methyl-3-isoxazolyl)urea nitrate]	excellent stability	excellent stability	excellent stability	highly hygroscopic	2.22%	2.22%	2.04%	
COc1cc2nccc(Oc3ccc(NC(=O)Nc4cc(C)on4)c(Cl)c3)c2cc1OC.Cc1ccc(S(=O)(=O)O)cc1 [Form I crystal of p-toluenesulfonate, N-{2-chloro-4-[(6,7-dimethoxy-4-quinolyl)oxy]phenyl}-N′-(5-methyl-3-isoxazolyl)urea p-toluenesulfonate]	excellent stability	excellent stability	excellent stability					hygroscopicity (level, in words) ([4]; p-toluenesulfonate): low level of hygroscopicity; also recorded: on a low level; weight change (hygroscopicity) After 1 week ([4]; p-toluenesulfonate): 0.24%; weight change (hygroscopicity) After 2 weeks ([4]; p-toluenesulfonate): 0.25%; weight change (hygroscopicity) After 2 days ([4]; p-toluenesulfonate): 0.29%
COc1cc2nccc(Oc3ccc(NC(=O)Nc4cc(C)on4)c(Cl)c3)c2cc1OC.O=S(=O)(O)O [Form I crystal of sulfate, N-{2-chloro-4-[(6,7-dimethoxy-4-quinolyl)oxy]phenyl}-N′-(5-methyl-3-isoxazolyl)urea sulfate]			lowering in peak intensity	highly hygroscopic	4.21%	4.25%	4.20%	stability of crystal under high temperature conditions (change of powder X-ray diffraction chart) ([1]; listed as form I crystal of sulfate, sulfate): excellent stability; stability of crystal under high humidity conditions (change of powder X-ray diffraction chart) ([2]; sulfate): converted to a mixture of form I crystal and a novel crystalline form
COc1cc2nccc(Oc3ccc(NC(=O)Nc4cc(C)on4)c(Cl)c3)c2cc1OC.Cl [Form II crystal of hydrochloride, N-{2-chloro-4-[(6,7-dimethoxy-4-quinolyl)oxy]phenyl}-N′-(5-methyl-3-isoxazolyl)urea hydrochloride]								stability of crystal under high temperature conditions (change of powder X-ray diffraction chart) [1, 5]: excellent stability; stability of crystal under high humidity conditions (change of powder X-ray diffraction chart) [2, 5]: excellent stability; stability of crystal against physical stress (powder X-ray diffraction before and after grinding) [3, 5]: excellent stability; hygroscopicity (level, in words) ([4]; hydrochloride): low level of hygroscopicity; also recorded: on a low level; weight change (hygroscopicity) After 1 week ([4]; hydrochloride): 0.29%; weight change (hygroscopicity) After 2 weeks ([4]; hydrochloride): 0.20%; weight change (hygroscopicity) After 2 days ([4]; hydrochloride): 0.30%
COc1cc2nccc(Oc3ccc(NC(=O)Nc4cc(C)on4)c(Cl)c3)c2cc1OC.O=C(O)/C=C\C(=O)O [Form II crystal of maleate, N-{2-chloro-4-[(6,7-dimethoxy-4-quinolyl)oxy]phenyl}-N′-(5-methyl-3-isoxazolyl)urea maleate]	excellent stability	excellent stability						stability of crystal against physical stress (powder X-ray diffraction before and after grinding) ([3]; maleate): excellent stability; hygroscopicity (level, in words) ([4]; maleate): low level of hygroscopicity; also recorded: on a low level; weight change (hygroscopicity) After 1 week ([4]; maleate): 0.42%; weight change (hygroscopicity) After 2 weeks ([4]; maleate): 0.57%; weight change (hygroscopicity) After 2 days ([4]; maleate): 0.60%
COc1cc2nccc(Oc3ccc(NC(=O)Nc4cc(C)on4)c(Cl)c3)c2cc1OC.Cc1ccc(S(=O)(=O)O)cc1 [Form II crystal of p-toluenesulfonate, N-{2-chloro-4-[(6,7-dimethoxy-4-quinolyl)oxy]phenyl}-N′-(5-methyl-3-isoxazolyl)urea p-toluenesulfonate]	excellent stability	excellent stability	excellent stability					hygroscopicity (level, in words) ([4]; p-toluenesulfonate): low level of hygroscopicity; also recorded: on a low level; weight change (hygroscopicity) After 1 week ([4]; p-toluenesulfonate): 0.70%; weight change (hygroscopicity) After 2 weeks ([4]; p-toluenesulfonate): 0.80%; weight change (hygroscopicity) After 2 days ([4]; p-toluenesulfonate): 0.84%
COc1cc2nccc(Oc3ccc(NC(=O)Nc4cc(C)on4)c(Cl)c3)c2cc1OC.O=S(=O)(O)O [Form II crystal of sulfate, N-{2-chloro-4-[(6,7-dimethoxy-4-quinolyl)oxy]phenyl}-N′-(5-methyl-3-isoxazolyl)urea sulfate]								stability of crystal under high temperature conditions (change of powder X-ray diffraction chart) ([1]; listed as form II crystal of sulfate, sulfate): converted to a novel crystalline form; stability of crystal under high humidity conditions (change of powder X-ray diffraction chart) ([2]; listed as from II crystal of sulfate, sulfate): converted to a novel crystalline form
